Data reported in patent EP1733758A1, “Methods for administration of a farnesyl dibenzodiazepinone” (Ecopia Biosciences Inc., priority 2005, dated 2006).
Like-named read-outs stand apart in the source and are kept apart here.

Key:
[1] = Pharmacokinetics and tissue distribution after bolus IV, IP, SC and PO administration in mice; assay type: in vivo, female Crl: CD1 mice
Protocol: The compound of formula I was dissolved in ethanol (5%), Polysorbate 80 (15%), PEG 400 (5%) and dextrose (5%) at a final concentration of 6 mg/ml (IV, IP and SC administration). For oral administration, the compound of Formula I was solubilized in Chremophor® EL/ Ethanol (50%:50%) at a final concentration of 6 mg/ml. Prior to dosing, animals (female Crl: CD1 mice; 6 weeks of age, 22-24g) were weighed, randomly selected and assigned to the different treatment groups. The compound of Formula I was administered by the bolus intravenous (IV), bolus subcutaneous (SC), bolus intraperitoneal (IP), or oral (PO) route to the assigned animals. The dosing volume of Formula I was 5 mL per kg body weight. Animals were anesthetized prior to bleeding with 5% isoflurane. Blood was collected into microtainer tubes containing the anticoagulant K2EDTA by cardiac puncture from each of 4 animals per bleeding timepoint (2min, 5 min, 15 min, 30 min, 1 h, 2h, 4h and 8h). Following collection, the samples were centrifuged and the plasma obtained from each sample was recovered and stored frozen (at approximately - 80°C) pending analysis. At the 5 min and 30 min time points, the following organs were harvested from each animal: brain, lungs, skeletal muscle, fat tissue, kidneys, spleen, thymus and liver. Tissues were frozen (at approximately -80°C) pending analysis. Samples were analysed by LC/MS/MS.
Plasma values of the compound of Formula I falling below the limit of quantitation (LOQ) were set to zero. […] The following pharmacokinetic parameters were calculated: area under the plasma concentration versus time curve from time zero to the last measurable concentration time point (AUCO-t), area under the plasma concentration versus time curve extrapolated to infinity (AUCinf), maximum observed plasma concentration (Cmax), time of maximum plasma concentration (tmax), apparent first-order terminal elimination rate constant (kel), apparent first-order terminal elimination half-life will be calculated as 0.693/kel (t1/2). The systemic clearance (CL) of the compound of Formula I after intravenous administration was calculated using Dose/AUCinf. Pharmacokinetic parameters were calculated using Kinetica™ 4.1.1 (InnaPhase Corporation, Philadelphia, PA).

[2] = Pharmacokinetics of 14-day continuous intravenous infusion in rats; assay type: in vivo, Sprague-Dawley rats; conditions: for steady-state plasma concentration / Css / T½z: 14-day CIV; for Css: average of plasma concentration between 30h and 14 days; for T½z: calculated at the end of treatment
Protocol: Sprague-Dawley rats received an intravenous continuous infusion over 14 days of Formula I at 25 mg/kg/day, 50 mg/kg/day, or 75 mg/kg/day at a rate of 2 mL/kg/h for 14 consecutive days (same formulation as in Example 7). Blood was collected from the jugular vein in tubes containing K2 EDTA from 3 rats/sex/group at the following time points: 2, 6, and 12 hours after the start of dosing on Day 1, on Day 2 at 6 hours (approximately 30 hours after the start of dosing), on Days 6 and 10 at 6 hours, and on Day 15, 1 hour prior the end of dosing, and then at 5 min, 15 min, 30 min, 1 h, and 2 h after the end of dosing.

[3] = Population pharmacokinetic analysis (NONMEM), rat; assay type: in vivo; conditions: Rat (IV+CIV)
Protocol: An analysis was performed to derive allometric equations for Formula I pharmacokinetic parameters using Formula I plasma concentration-time data from three species, including mouse, rat, and monkey, and to estimate human pharmacokinetic parameters from those allometric equations.
Plasma concentrations of Formula I were obtained from mice, rats, and monkeys following intravenous injection or continuous infusion. Formula I pharmacokinetic parameters in mice, rats, and monkeys were estimated using population pharmacokinetic analysis, a function of the software program NONMEM™ (version 5). Typical population pharmacokinetic parameters for Formula I in humans were extrapolated from allometric equations that were derived from pharmacokinetic parameters estimated in the three animal species.
A two-compartment model with a first-order elimination from the central compartment adequately described Formula I plasma concentration-time profiles following intravenous bolus injection (30 mg/kg) in mice and rats, 7-day continuous infusion in rats (50 to 170 mg/kg/day), and 14-day continuous infusion in monkeys (5 to 30 mg/kg/day).

[4] = system: human prostate tumor (PC3) xenografts; assay: Human PC3 prostate tumor xenograft efficacy; assay type: in vivo, HRLN male nude mice; conditions: for %T/C: day 38, P< 0.0001
Protocol: The anticancer activity of the compound of Formula I was further tested in a human PC3 prostate model in mice. HRLN male nude mice (8 weeks of age) were implanted with 1 mm^3 PC3 tumor fragments subcutaneously (SC) in the right flank. Animals were randomized (ten per group) when tumors reach an average size of 80 - 120 mg and treatment began according to the table below. For these studies, the compound of Formula I was formulated in 5% ethanol, 5% PEG-400, 15% Polysorbate 80, and 75% of water containing 5% dextrose.
Tumor measurements were taken twice weekly using callipers and were converted to tumor mass (in milligrams) using the formula: with^2 (mm) x length (mm) x 0.52. Body weights were also recorded twice weekly. Statistical analysis was done using the unpaired two-tailed Student's t test.

tumor cell lines = assay: In vitro activity against tumor cell lines (average); assay type: cell-based
[5] = Maximum tolerated dose and tolerability of bolus administration in mice; assay type: in vivo; conditions: for MTD: mouse, in vivo
[6] = typical population PK parameter

Compound: CC(C)=CCC/C(C)=C/CC/C(C)=C/CN1C(=O)c2cccc(O)c2Nc2c(O)cc(O)cc21 [Formula I, 10-farnesyl-4,6,8-trihydroxy-dibenzodiazepin-11-one]
- plasma concentration ([1]; 30 mg/kg bolus IV, initial): 425000 nM
- peak concentration ([1]; IP bolus, plasma): 7.8 µM
- time peak concentration reached ([1]; IP bolus, plasma): 15 min
- tissue distribution ([1]; IV and IP bolus 30 mg/kg, 30 min): well distributed
- tissue levels compared with IP ([1]; SC bolus 30 mg/kg, 30 min): significantly lower
- peak concentration ([1]; SC bolus, plasma): 2.3 µM
- time peak concentration reached ([1]; SC bolus, plasma): 60 min
- bioavailability ([1]; female, Crl: CD1, mouse, plasma, PO 30 mg/kg compared to IV bolus administration, read-out: orally bioavailable): 5 to 8%
- half-life ([1]; female, Crl:CD1, mouse, bolus IV 30 mg/kg, plasma, read-out: t1/2 α): 4.7 min
- concentration at 8 h ([1]; female, Crl:CD1, mouse, plasma, 30 mg/kg bolus IV, by 8 hours, read-out: plasma concentration): ~100 nM
- concentration at 4 h ([1]; female, Crl:CD1, mouse, plasma, 30 mg/kg bolus IV, four hours after administration): 200 nM
- concentration at 1 h ([1]; female, Crl:CD1, mouse, plasma, 30 mg/kg bolus IV, within one hour): 1300 nM
- concentration at 8 h ([1]; female, Crl:CD1, mouse, plasma, 30 mg/kg, IP bolus, read-out: plasma concentration remained for up to 8 hours): ~950 nM
- concentration at 8 h ([1]; female, Crl:CD1, mouse, plasma, 30 mg/kg, SC bolus, read-out: plasma concentration remained for up to 8 hours): ~1800 nM
- time plasma concentration is maintained at therapeutically relevant levels ([1]; intraperitoneal and subcutaneous 30 mg/kg): over 8 hours
- steady-state plasma concentrations ([2]; 14-day CIV at doses of 50 and 75 mg/kg/day, above therapeutic threshold): > 2 µM
- steady-state plasma concentration ([2]; 25 mg/kg/day): ~0.8 µM
- Css ([2]; 25 mg/kg/day): 347 ng/mL
- T½z ([2]; 25 mg/kg/day): 1.6 h
- steady-state plasma concentration ([2]; 50 mg/kg/day): ~2.5 µM
- Css ([2]; 50 mg/kg/day): 1,150 ng/mL
- T½z ([2]; 50 mg/kg/day): 1.2 h
- steady-state plasma concentration ([2]; 75 mg/kg/day): ~3.9 µM
- Css ([2]; 75 mg/kg/day): 1,796 ng/mL
- T½z ([2]; 75 mg/kg/day): 1.2 h
- plasma concentration ([2]; CIV 50 mg/kg/day, Day 10 (unusually high)): 1,753 ng/mL
- Q ([3]; WT 0.225 Kg): 0.016 L/h
- V1 ([3]; WT 0.225 Kg): 0.028 L
- V2 ([3]; WT 0.225 Kg): 0.053 L
- Ke [3, 6]: 8.651 h⁻¹
- Q [3, 6]: 1.16 mL/min/kg
- V1 [3, 6]: 0.126 L/kg
- V2 [3, 6]: 0.236 L/kg
- %T/C ([4]; bolus SC 30 mg/kg days 1 to 5, 8 to 12 and 15 to 19): 25.5%
- %T/C ([4]; bolus SC 50 mg/kg every three days x 7): 14.6%
- antitumor activity ([4]; bolus intravenous treatment (100 mg/kg, 5/2/5/2/5)): did not result in activity
- IC50 (tumor cell lines): ≥ 1000 nM
- tolerability finding ([5]; IP bolus dosing): some intestinal occlusion
- tolerability finding ([5]; SC bolus dosing): swelling and thickening of the skin
- MTD ([5]; IP bolus): 20 mg/kg
- MTD ([5]; IV bolus): 200 mg/kg
- MTD ([5]; SC bolus): 30 mg/kg
